# Assays:
# KB cells = assay: Protection from growth inhibition by nucleosides and AICA in KB cells; assay type: cell-based, human
# FRα = conditions: RT16 cells; folic acid = 1; cited from earlier work
# FRβ = conditions: D4 cells; folic acid = 1; cited from earlier work
SMILES,"Growth in the presence of AICA at higher concentrations (KB cells; AICA 320 μM, compound above 100 nM)","Protection by AICA from toxicity at low and medium concentrations (KB cells; AICA 320 μM, compound ≤ 50 nM)",Protection by adenosine from growth inhibitory effects (KB cells; adenosine 60 μM),Effect of thymidine on growth inhibitory effects (KB cells; thymidine 10 μM),Relative binding affinity for FRα (FRα),Relative binding affinity for FRβ (FRβ)
"Nc1nc2sc(CCCCc3ccc(C(=O)N[C@@H](CCC(=O)O)C(=O)O)cc3)cc2c(=O)[nH]1 [Compound 4, N-{4-[4-(2-amino-4-oxo-3,4-dihydrothieno[2,3-d]pyrimidin-6-yl)butyl]benzoyl}-L-glutamic acid]",still significantly inhibited,almost completely protected,completely protective,did not alter,,
"Nc1nc2c(c(=O)[nH]1)N(C=O)C(CNc1ccc(C(=O)N[C@@H](CCC(=O)O)C(=O)O)cc1)CN2 (stereo partly drawn) [LCV, (6R,S) 5-formyl tetrahydrofolate]",,,,,0.25-0.45,< 0.01

# Reference: publication PMC2730022 (Journal of medicinal chemistry, 2009)
